These results are taken from patent US11076595B2, “1-(n,n-disubstituted carbamoyl) 4-(substituted sulfonyl)triazolin-5-one derivative, 4-(n,n-disubstituted carbamoyl) 1-(substituted sulfonyl)triazolin-5-one derivative, and herbicide containing said derivative as active ingredient” (HOKKO CHEMICAL INDUSTRY CO., LTD., priority 2017, dated 2021).

The test system of data set [1] is Chenopodium album. The experiment in a line: Test Example 4: herbicidal effect test by foliage treatment in upland field. In kind it is in vivo. The settings on record: upland field foliage treatment 7 days after sowing; 120 g/10a; evaluated 14 days after treatment. The method, boiled down:
(§1)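 In this upland pot test, each species is sown at 20 seeds per pot. Spraying follows one week later at a dose of 120 g active ingredient per 10 are. Weed suppression, calculated from average dry weights, is determined 14 days afterward.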

For data set [2], the system named is crabgrass. Described as above. In kind it is in vivo. The settings on record: upland field foliage treatment 7 days after sowing; 120 g/10a; evaluated 14 days after treatment. The method, boiled down: as §1
In data set [3] the test system is Echinochloa crus-galli. The data set is described as above. The data set is classed as in vivo. The settings on record: upland field foliage treatment 7 days after sowing; 120 g/10a; evaluated 14 days after treatment. The procedure, abridged: as §1
The test system of data set [4] is Amaranthus viridis. Described as above. The settings on record: upland field foliage treatment 7 days after sowing; 120 g/10a; evaluated 14 days after treatment. In kind it is in vivo. The method, boiled down:
as §1

The test system of data set [5] is Monochoria vaginalis. The experiment in a line: Test Example 1: herbicidal effect test by soil treatment in paddy field. The data set is classed as in vivo. The settings on record: 120 g/10a, paddy soil treatment just after sowing, 14 days after treatment. The procedure, abridged:
(§2)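 Pre-emergence paddy soil treatment: diluted emulsifiable concentrate, 120 g active ingredient/10 are, applied dropwise into ~3 cm flood water immediately post-sowing. Two replicates; dry-weight-based suppression % vs untreated, day 14, glasshouse.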

In data set [6] the test system is Scirpus juncoides. The description is as above. The data set is classed as in vivo. The settings on record: 120 g/10a, paddy soil treatment just after sowing, 14 days after treatment. The method, boiled down:
as §2

The subject of data set [7] is Echinochloa crus-galli. The description is as above. In kind it is in vivo. The settings on record: 120 g/10a, paddy soil treatment just after sowing, 14 days after treatment. The method, boiled down: as §2
For data set [8], the system named is Lindernia pyxidaria. The data set is described as above. The settings on record: 120 g/10a, paddy soil treatment just after sowing, 14 days after treatment. In kind it is in vivo. The procedure, abridged: as §2
Data set [9] has as its system Monochoria vaginalis. The experiment in a line: Test Example 2: herbicidal effect test by treatment during growing period in paddy field. In kind it is in vivo. The settings on record: treatment 7 days after sowing, 120 g/10a, evaluated 14 days after treatment. The procedure, abridged:
(§3)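 Paddy soil in flooded pots (~3 cm water), 30 seeds per species sown 0–1 cm deep, greenhouse. Emulsifiable concentrate diluted in water and dripped into the water 7 days after sowing at 120 g a.i. per 10 are. Suppression (%) from dry weight vs untreated, 14 days post-treatment, two replicates.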

For data set [10], the system named is Scirpus juncoides. The data set is described as above. The settings on record: treatment 7 days after sowing, 120 g/10a, evaluated 14 days after treatment. In kind it is in vivo. The procedure, abridged: as §3
The subject of data set [11] is Echinochloa crus-galli. Described as above. In kind it is in vivo. The settings on record: treatment 7 days after sowing, 120 g/10a, evaluated 14 days after treatment. The method, boiled down:
as §3

Data set [12] has as its system Lindernia pyxidaria. Described as above. The data set is classed as in vivo. The settings on record: treatment 7 days after sowing, 120 g/10a, evaluated 14 days after treatment. The method, boiled down:
as §3

The subject of data set [13] is Chenopodium album. The experiment in a line: Test Example 3: herbicidal effect test by soil treatment in upland field. In kind it is in vivo. The settings on record: upland field soil treatment 1 day after sowing; 120 g/10a; evaluated 14 days after treatment. The procedure, abridged:
(§4)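 Pots of alluvial field soil sown with 20 seeds per weed species; one day later emulsifiable concentrate diluted in water and sprayed on soil surface at 100 L per 10 are, 120 g active ingredient per 10 are. Suppression rate (%) from dry weight versus untreated plots after 14 days, two replicates.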

Data set [14] has as its system crabgrass. The data set is described as above. The settings on record: upland field soil treatment 1 day after sowing; 120 g/10a; evaluated 14 days after treatment. The data set is classed as in vivo. The method, boiled down:
as §4

The subject of data set [15] is Echinochloa crus-galli. The description is as above. The settings on record: upland field soil treatment 1 day after sowing; 120 g/10a; evaluated 14 days after treatment. The data set is classed as in vivo. The method, boiled down:
as §4

The subject of data set [16] is Amaranthus viridis. The description is as above. In kind it is in vivo. The settings on record: upland field soil treatment 1 day after sowing; 120 g/10a; evaluated 14 days after treatment. The procedure, abridged:
as §4

The melting point is the temperature, or range, at which the solid turns liquid. For the compound `CC(C)N(C(=O)n1ncn(S(=O)(=O)C(C)C)c1=O)c1ccccc1` [Compound 1-54], the melting point fell in the range of 92 to 94 °C. The “herbicidal effect (weed suppression rate), Chenopodium album” value (from here on “herbicidal effect … Chenopodium album”) in data set [1] was 80%. In addition, the “herbicidal effect (weed suppression rate), Crabgrass” value (“herbicidal effect … Crabgrass” below) in data set [2] turned out to be 90%. Besides, the “herbicidal effect (weed suppression rate), Echinochloa crus-galli” value (shortened to “herbicidal effect … Echinochloa crus-galli”) in data set [3] is 80%. The “herbicidal effect (weed suppression rate), Amaranthus viridis” value (from here on “herbicidal effect … Amaranthus viridis”) in data set [4] came out at 90%. For the same compound, the “weed suppression rate, Monochoria vaginalis” value in data set [5] stood at 80%. Besides, the “weed suppression rate, Scirpus juncoides” value in data set [6] worked out at 90%. Besides, in data set [7], the “weed suppression rate, Echinochloa crus-galli” value came out at 90%. Besides, the “weed suppression rate, Lindemia pyxidaria” value in data set [8] was 80%. The “weed suppression rate, Monochoria vaginalis” value in data set [9] is reported as 80%. Besides, the “weed suppression rate, Scirpus juncoides” value in data set [10] worked out at 90%. Further, the “weed suppression rate, Echinochloa crus-galli” value in [11] was determined as 90%. Moreover, the “weed suppression rate, Lindemia pyxidaria” value in data set [12] is 80%.
In the case of `CCN(CC)C(=O)n1ncn(S(C)(=O)=O)c1=O` [Compound 1-1], the melting point is 81.7 to 85.3 °C.
For `CCN(CC)C(=O)n1ncn(S(=O)(=O)Cc2ccccc2)c1=O` [Compound 1-968], the melting point fell in the range of 115.8 to 118.6 °C.
Take `CC(C)N(C(=O)n1ncn(S(=O)(=O)C2CC2)c1=O)c1ccc(F)cc1F` [Compound 1-150, 4-cyclopropylsulfonyl-N-(2,4-difluorophenyl)-N-isopropyl-5-oxo-1,2,4-triazole-1-carboxamide]: the melting point lay in the range of 144 to 146 °C. In addition, the “herbicidal effect … Chenopodium album” value in [1] is recorded as 80%. Moreover, the “herbicidal effect … Crabgrass” value in data set [2] is 90%. In data set [3], the “herbicidal effect … Echinochloa crus-galli” value amounted to 80%. Moreover, in data set [4], the “herbicidal effect … Amaranthus viridis” value is reported as 90%. Further, in data set [13], the “herbicidal effect … Chenopodium album” value was determined as 100%. Besides, in [14], the “herbicidal effect … Crabgrass” value was 100%. In data set [15], the “herbicidal effect … Echinochloa crus-galli” value was 100%. Besides, the “herbicidal effect … Amaranthus viridis” value in data set [16] was determined as 90%. In addition, the “weed suppression rate, Monochoria vaginalis” value in data set [5] is 100%. In data set [6], the “weed suppression rate, Scirpus juncoides” value is recorded as 100%. For the same compound, the “weed suppression rate, Echinochloa crus-galli” value in [7] is given as 100%. Moreover, the “weed suppression rate, Lindemia pyxidaria” value in [8] is 100%. In data set [9], the “weed suppression rate, Monochoria vaginalis” value is 90%. The “weed suppression rate, Scirpus juncoides” value in data set [10] stood at 90%. Further, in data set [11], the “weed suppression rate, Echinochloa crus-galli” value turned out to be 100%. Moreover, the “weed suppression rate, Lindemia pyxidaria” value in data set [12] was found to be 90%.
In the case of `CC(C)N(C(=O)n1ncn(S(=O)(=O)C2CC2)c1=O)c1ccccc1` [Compound 1-168], the melting point is 102 to 104 °C. In data set [5], the “weed suppression rate, Monochoria vaginalis” value was found to be 80%. Also, the “weed suppression rate, Scirpus juncoides” value in data set [6] was 90%. In addition, the “weed suppression rate, Echinochloa crus-galli” value in data set [7] was 90%. In addition, the “weed suppression rate, Lindemia pyxidaria” value in data set [8] was 80%. For the same compound, in [9], the “weed suppression rate, Monochoria vaginalis” value was 80%. Besides, the “weed suppression rate, Scirpus juncoides” value in data set [10] was found to be 90%. For the same compound, in data set [11], the “weed suppression rate, Echinochloa crus-galli” value is 90%. In data set [12], the “weed suppression rate, Lindemia pyxidaria” value came out at 80%.
In the case of `CC(C)N(C(=O)n1ncn(S(=O)(=O)C2CC2)c1=O)c1ccccc1F` [Compound 1-169], the “herbicidal effect … Chenopodium album” value in data set [1] and in data set [13] was 80% throughout. Moreover, the “herbicidal effect … Crabgrass” value in data set [2] and in [14] was 90% throughout. Also, the “herbicidal effect … Echinochloa crus-galli” value in data set [3] and in data set [15] was 80% in each case. The “herbicidal effect … Amaranthus viridis” value in data set [4] and in data set [16] was 90% in each case. Moreover, the “weed suppression rate, Monochoria vaginalis” value in [5] and in data set [9] was 90% each time. The “weed suppression rate, Scirpus juncoides” value was 90% in data set [6] and 80% in data set [10]. In addition, the “weed suppression rate, Echinochloa crus-galli” value in data set [7] and in data set [11] was 100% throughout. The figures for the “weed suppression rate, Lindemia pyxidaria” value in data set [8] and in data set [12] were 90% and 80%, respectively.
Take `CC(C)N(C(=O)n1ncn(S(=O)(=O)C2CCCCC2)c1=O)c1c(F)cccc1F` [Compound 1-308]: the “herbicidal effect … Chenopodium album” value in [1] and in [13] was 40% throughout. The “herbicidal effect … Crabgrass” value in data set [2] and in data set [14] was 90% throughout. Besides, the “herbicidal effect … Echinochloa crus-galli” value in data set [3] and in data set [15] was 90% each time. Besides, the “herbicidal effect … Amaranthus viridis” value was 60% in data set [4] and 40% in data set [16]. The “weed suppression rate, Monochoria vaginalis” value stood at 80% in data set [5] and 100% in data set [9]. Moreover, the “weed suppression rate, Scirpus juncoides” value in [6] and in data set [10] was 100% throughout. The “weed suppression rate, Echinochloa crus-galli” value in [7] and in data set [11] was 100% throughout. Besides, the “weed suppression rate, Lindemia pyxidaria” value in [8] turned out to be 100%; in data set [12], 90%.
Take `CC(C)N(C(=O)n1ncn(S(=O)(=O)C(C)C)c1=O)c1cccnc1F` [Compound 1-90]: the “herbicidal effect … Chenopodium album” value is on record as 70% in data set [1] and 90% in data set [13]. Also, the “herbicidal effect … Crabgrass” value in data set [2] was 90%; in [14], 100%. For the same compound, the “herbicidal effect … Echinochloa crus-galli” value in [3] worked out at 90%; in data set [15], 100%. In addition, the entries for the “herbicidal effect … Amaranthus viridis” value in [4] and in [16] were 50% and 90%, respectively. Also, the “weed suppression rate, Monochoria vaginalis” value in data set [5] is reported as 80%; in data set [9], 90%. In addition, the “weed suppression rate, Scirpus juncoides” value in data set [6] and in data set [10] was 90% in each case. Also, the “weed suppression rate, Echinochloa crus-galli” value in data set [7] and in [11] was 100% in each case. The “weed suppression rate, Lindemia pyxidaria” value in [8] and in data set [12] was 90% in each case.
`CC(C)N(C(=O)n1ncn(S(=O)(=O)C2CC2)c1=O)c1ccc(Cl)cn1` [Compound 1-244]: the “herbicidal effect … Chenopodium album” value in data set [1] and in data set [13] was 40% throughout. Besides, the “herbicidal effect … Crabgrass” value in data set [2] and in [14] was 90% throughout. Moreover, the “herbicidal effect … Echinochloa crus-galli” value was found to be 90% in [3] and 80% in data set [15]. Further, the “herbicidal effect … Amaranthus viridis” value in data set [4] was determined as 0%; in data set [16] it was 50%. Also, the “weed suppression rate, Monochoria vaginalis” value in [5] and in [9] was 90% in each case. In addition, the “weed suppression rate, Scirpus juncoides” value in data set [6] and in data set [10] was 90% throughout. Moreover, the “weed suppression rate, Echinochloa crus-galli” value in [7] and in data set [11] was 100% throughout. The “weed suppression rate, Lindemia pyxidaria” value in data set [8] and in data set [12] was 100% throughout.
